Results from patent publication EP0300806A1, “Opioid analgesic liposomal delivery-release system” (VESTAR, INC., priority 1987, dated 1989).
Where a name gives a salt, the structure may show the parent alone.

Assays:
[1] = tested on: phenylquinone-induced writhing; experiment: phenylquinone-induced writhing assay, analgesia after i.m. injection; type: in vivo, Mice
Method: Duration of analgesia was evaluated using the phenylquinone-induced writhing assay essentially as described by Pircio et al. R.W. Pircio, J.A. Gylys, R.L. Cavanagh, J.P. Buyniski and M.E. Bierwagen, 220 Archives Internationales de Pharmacodynamie et de Therapie, 231-57 (1976). Mice were given intraperitoneal injections of 0.025% (w/v) phenyl-p-quinone in 5% ethanol (2.5 mg/kg). […] The writhing phenomenon has been described by Siegmund et al. E. Siegmund, R. Cadmus, G. Lu, 95 Proceedings of the Society for Experimental Biology and Medicine, 729-31 (1957). Five animals per observer was established as a manageable procedure yielding values which were reproducible and consistent from observer to observer. […]
The dose required for single injection ED₅₀ and ED₁₀₀ of free butorphanol tartrate was determined by administering various doses of free drug intramuscularly 15 minutes prior to the i.p. injections of phenylquinone. […] The ED₅₀ and ED₁₀₀ values determined in this study were compared for agreement with reported literature values and used along with control values as a reference standard for each study. […]
Extended analgesia studies were conducted using no fewer than 50 animals per treatment group. […] The times at which analgesic effect was measured were based on the particular treatment and on the results of the previous bioassays for the treatment group.

[2] = tested on: phenylquinone-induced writhing; experiment: tolerance (tachyphylaxis) studies: shift of ED50 of free butorphanol tartrate in the writhing assay after pretreatment; type: in vivo, mice

For `Oc1ccc2c(c1)C13CCCCC1(O)C(C2)N(CC1CCC1)CC3` (stereo not drawn) [free butorphanol tartrate, butorphanol tartrate], the “effect of higher doses on duration of analgesia” value ([1]; 2 ug, 50 ug and 500 ug dose curves, Fig. 1) was “do not provide extended efficacy”, the ED50 ([1]; Mus musculus, im, 0.25 h, untreated mice, single i.m. injection of free drug 15 minutes prior to i.p. phenylquinone, read-out: ED₅₀) was 0.05 mg/kg and the “36 hr. ED₅₀” value ([2]; 5 injections of 100 ug/kg at 3 hr. intervals, second protocol, Fig. 6) was “suggestive of recovery from tachyphylaxis”. For the same compound, the ED50 ([2]; Mus musculus, im, after four i.m. injections of 50 ul saline at 3 hr. intervals, determined 13 hrs. after start, read-out: ED₅₀ for free butorphanol tartrate after multiple injections of saline) was roughly 0.125 mg/kg, the “increase in ED₅₀ values between no treatment animals and multiple injection animals” value ([2]; after 4 injections of the ED₁₀₀ dose at 3 hr. intervals, first protocol, Fig. 2) was 4-5 fold and the “shift of ED₅₀ relative to its initial value” ([2]; pretreatment with 4 injections of 100 ug/kg, Fig. 4 bottom panel) was “approximately 4 times its initial value”.
